Results reported in US12053606B2, “Opioid overdose rescue device” (Celero Systems, Inc., priority 2019, dated 2024).

Columns and labels:
respiratory rate = experiment: Induced morphine overdose and rescue with nalmefene in anesthetized porcine animal model; format: in vivo
Excerpt: The following examples provides data collected from an opioid overdose rescue device during overdose and rescue animal studies. The opioid overdose rescue device included a substrate having a PPG sensor, accelerometer and microcontroller disposed thereon, which was coupled to a substrate having a radio, chip antenna, power management components, and magnet sensor (so the device could be turned on and off without direct contact) disposed thereon.
FIGS. 6A and 6B show an example PPG sensor recording from the intestines in an anesthetized porcine animal model during an overdose and recovery study. The PPG sensor was endoscopically placed into the small intestine and anchored to intestinal tissue with 2 endoclips—one on each side of the device.
Baseline data was collected for 8 minutes. Then 60 mg of IV morphine was administered over 3 minutes (20 mg each minute for 3 minutes). The respiratory rate as measured by the lab vitals monitoring equipment decreased eventually to zero, indicated respiratory failure. One minute after respiratory failure, 50 mg nalmefene in solution was administered endoscopically directly into the intestines. Within 4 minutes of nalmefene delivery breathing recovered and eventually returned to pre-overdose levels. […] In certain aspects, a method of mitigating the effects of an opioid overdose could involve determining when a measured respiratory rate drops below a threshold (e.g. 8 breaths per minute) for a duration of time (e.g. 30 seconds) and commanding release of a rescue medication.
In a different study than referenced in FIG. 7, the device was endoscopically placed and anchored in the animal's intestine in a similar manner. […] As with the PPG data, a measured respiratory rate obtained from the motion sensing (i.e. accelerometer) data in the intestine could be used to detect an opioid overdose and trigger delivery of a rescue medication.

[1] = system: opiate receptors—μ, κ and δ; conditions: cited from earlier work
[2] = cited from earlier work

CN1CC[C@]23c4c5ccc(O)c4O[C@H]2[C@@H](O)C=C[C@H]3[C@H]1C5 [morphine]
respiratory rate after morphine (lab vitals monitor) (respiratory rate; 60 mg IV morphine over 3 minutes, zero indicates respiratory failure): zero

C=C1CC[C@@]2(O)[C@H]3Cc4ccc(O)c5c4[C@@]2(CCN3CC2CC2)[C@H]1O5 [nalmefene]
antagonist activity at opiate receptor types [1]: antagonist activity against all three types of opiate receptors | time after nalmefene delivery until breathing recovered (respiratory rate; PPG sensor study (FIG. 7), 50 mg nalmefene in solution endoscopically into the intestines, one minute after respiratory failure from 60 mg IV morphine): ≤ 4 min | time after nalmefene delivery until respiratory rate restored to normal levels (respiratory rate; accelerometer study (FIG. 8), 50 mg nalmefene in solution endoscopically delivered after respiratory failure from 60 mg IV morphine): 14 min | oral bioavailability [2]: 41%
